Test [1] addresses Bromodomain and WD repeat-containing protein 3 (Homo sapiens) (UniProt Q6RI45). The following applies: dose 10.0 µM.
A further test is filed under the species Homo sapiens. The following applies: dose 10.0 µM.
In test [2] the target is Transcription intermediary factor 1-alpha (Homo sapiens) (UniProt O15164). The following applies: dose 10.0 µM.
Test [3] has as its target Transcription initiation factor TFIID subunit 1 (Homo sapiens) (UniProt P21675). The following applies: dose 10.0 µM.
In test [4] the target is T1, Bromodomain-containing protein 1 (Homo sapiens) (UniProt O95696).
T1 sequence (whole entry): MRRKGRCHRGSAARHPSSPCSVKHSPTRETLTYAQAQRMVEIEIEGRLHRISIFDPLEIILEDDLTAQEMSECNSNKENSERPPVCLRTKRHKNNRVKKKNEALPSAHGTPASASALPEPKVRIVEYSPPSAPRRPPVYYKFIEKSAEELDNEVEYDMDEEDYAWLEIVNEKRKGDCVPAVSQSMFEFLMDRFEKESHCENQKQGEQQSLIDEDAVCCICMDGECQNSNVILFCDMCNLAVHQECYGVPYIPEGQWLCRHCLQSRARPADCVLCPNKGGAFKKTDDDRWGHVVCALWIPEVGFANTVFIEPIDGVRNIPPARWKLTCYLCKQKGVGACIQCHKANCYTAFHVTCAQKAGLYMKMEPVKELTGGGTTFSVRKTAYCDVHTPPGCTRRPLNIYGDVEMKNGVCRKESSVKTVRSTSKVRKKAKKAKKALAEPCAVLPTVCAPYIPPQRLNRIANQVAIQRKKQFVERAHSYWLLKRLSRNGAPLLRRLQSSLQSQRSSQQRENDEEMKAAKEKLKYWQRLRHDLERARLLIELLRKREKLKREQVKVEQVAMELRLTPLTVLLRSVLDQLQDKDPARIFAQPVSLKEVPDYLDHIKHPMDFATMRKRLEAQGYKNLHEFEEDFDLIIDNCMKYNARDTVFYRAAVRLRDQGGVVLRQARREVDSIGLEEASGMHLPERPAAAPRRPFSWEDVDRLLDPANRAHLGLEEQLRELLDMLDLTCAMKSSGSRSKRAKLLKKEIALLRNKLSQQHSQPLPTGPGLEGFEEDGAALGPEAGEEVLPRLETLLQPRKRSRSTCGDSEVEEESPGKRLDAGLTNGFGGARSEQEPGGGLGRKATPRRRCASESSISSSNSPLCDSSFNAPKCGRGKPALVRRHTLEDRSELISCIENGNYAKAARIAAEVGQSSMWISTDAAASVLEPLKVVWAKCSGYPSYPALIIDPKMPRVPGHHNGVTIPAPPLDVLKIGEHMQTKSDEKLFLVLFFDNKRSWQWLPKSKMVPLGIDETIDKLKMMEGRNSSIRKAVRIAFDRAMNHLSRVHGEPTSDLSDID
Description: Binding affinity to BRPF2 (unknown origin) assessed as change in entropy at 12 uM by Isothermal titration calorimetry.

Test [5] addresses Beta-2 adrenergic receptor (Homo sapiens) (UniProt P07550). The test can be described thus: Inhibition of Beta2 (unknown origin) at 10 uM relative to control.
For test [6], the target named is Histone-lysine N-methyltransferase 2A (Homo sapiens) (UniProt Q03164). The following applies: dose 10.0 µM.
The target in test [7] is Bromodomain adjacent to zinc finger domain protein 1A (Homo sapiens) (UniProt Q9NRL2). The following applies: dose 10.0 µM.
For test [8], the target named is Protein polybromo-1 (Homo sapiens) (UniProt Q86U86). The following applies: dose 10.0 µM.
Another test has as its target T2, Peregrin (Homo sapiens) (UniProt P55201).
T2 sequence (whole entry): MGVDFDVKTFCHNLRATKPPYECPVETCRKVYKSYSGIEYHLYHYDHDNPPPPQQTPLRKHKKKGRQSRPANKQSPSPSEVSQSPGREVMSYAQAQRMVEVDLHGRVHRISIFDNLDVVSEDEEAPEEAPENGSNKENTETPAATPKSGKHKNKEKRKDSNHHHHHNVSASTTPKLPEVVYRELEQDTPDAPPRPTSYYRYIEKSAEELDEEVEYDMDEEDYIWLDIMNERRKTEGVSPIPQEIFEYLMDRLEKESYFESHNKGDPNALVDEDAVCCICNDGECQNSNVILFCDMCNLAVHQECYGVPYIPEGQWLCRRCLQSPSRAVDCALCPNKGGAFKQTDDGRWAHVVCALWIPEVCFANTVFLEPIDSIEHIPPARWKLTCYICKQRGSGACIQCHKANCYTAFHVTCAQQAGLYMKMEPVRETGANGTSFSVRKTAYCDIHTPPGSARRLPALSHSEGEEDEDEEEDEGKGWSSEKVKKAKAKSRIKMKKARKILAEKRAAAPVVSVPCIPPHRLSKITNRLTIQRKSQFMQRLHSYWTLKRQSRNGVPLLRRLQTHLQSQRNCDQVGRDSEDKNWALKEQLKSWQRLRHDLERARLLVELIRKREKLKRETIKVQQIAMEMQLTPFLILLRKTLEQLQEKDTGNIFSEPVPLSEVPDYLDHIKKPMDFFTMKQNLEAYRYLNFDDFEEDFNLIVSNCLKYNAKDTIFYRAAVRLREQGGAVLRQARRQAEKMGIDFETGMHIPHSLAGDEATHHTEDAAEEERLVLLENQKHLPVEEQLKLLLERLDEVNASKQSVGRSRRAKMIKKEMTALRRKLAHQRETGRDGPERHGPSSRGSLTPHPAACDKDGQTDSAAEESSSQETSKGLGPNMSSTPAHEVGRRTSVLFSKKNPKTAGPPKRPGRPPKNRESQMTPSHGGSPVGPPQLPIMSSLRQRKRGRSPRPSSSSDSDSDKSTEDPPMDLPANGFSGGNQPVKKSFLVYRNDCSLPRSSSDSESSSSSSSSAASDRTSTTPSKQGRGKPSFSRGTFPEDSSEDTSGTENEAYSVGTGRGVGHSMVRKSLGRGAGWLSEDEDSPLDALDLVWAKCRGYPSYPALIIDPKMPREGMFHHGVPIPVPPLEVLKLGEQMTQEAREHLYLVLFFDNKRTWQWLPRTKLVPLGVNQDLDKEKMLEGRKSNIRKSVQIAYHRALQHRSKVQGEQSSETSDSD
Description: Binding affinity to […] (unknown origin) assessed as change in enthalpy at 17 uM by Isothermal titration calorimetry.

Each structure is given as a SMILES string.

Transcription intermediary factor 1-alpha (Homo sapiens), sequence (O15164 whole entry): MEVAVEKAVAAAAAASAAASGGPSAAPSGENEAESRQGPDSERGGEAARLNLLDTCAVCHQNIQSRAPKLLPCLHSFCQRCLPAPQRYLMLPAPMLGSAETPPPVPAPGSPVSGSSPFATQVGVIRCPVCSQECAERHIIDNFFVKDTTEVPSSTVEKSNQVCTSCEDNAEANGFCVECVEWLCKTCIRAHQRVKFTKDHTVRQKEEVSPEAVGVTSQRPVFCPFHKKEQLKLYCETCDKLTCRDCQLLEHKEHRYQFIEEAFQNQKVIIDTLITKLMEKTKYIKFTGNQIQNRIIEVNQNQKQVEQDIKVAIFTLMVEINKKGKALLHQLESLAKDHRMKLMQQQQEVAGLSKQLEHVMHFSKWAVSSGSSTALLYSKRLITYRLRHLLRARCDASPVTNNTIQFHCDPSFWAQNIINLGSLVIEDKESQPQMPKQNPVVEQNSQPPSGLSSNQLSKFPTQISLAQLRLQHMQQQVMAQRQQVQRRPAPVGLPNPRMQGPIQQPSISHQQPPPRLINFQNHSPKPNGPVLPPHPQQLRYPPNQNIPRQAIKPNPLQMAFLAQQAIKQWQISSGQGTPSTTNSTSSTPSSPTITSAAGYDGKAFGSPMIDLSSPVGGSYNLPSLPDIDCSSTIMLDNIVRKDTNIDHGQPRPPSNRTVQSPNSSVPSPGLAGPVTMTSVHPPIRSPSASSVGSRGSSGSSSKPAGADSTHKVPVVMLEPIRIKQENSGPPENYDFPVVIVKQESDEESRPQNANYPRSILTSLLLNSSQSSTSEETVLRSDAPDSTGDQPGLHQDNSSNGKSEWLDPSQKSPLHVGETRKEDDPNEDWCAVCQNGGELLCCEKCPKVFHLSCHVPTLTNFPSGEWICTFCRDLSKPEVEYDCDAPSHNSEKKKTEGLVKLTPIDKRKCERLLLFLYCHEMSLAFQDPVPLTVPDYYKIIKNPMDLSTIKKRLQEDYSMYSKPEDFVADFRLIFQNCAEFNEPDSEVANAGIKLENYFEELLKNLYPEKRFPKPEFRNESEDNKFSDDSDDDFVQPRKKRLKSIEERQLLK
Beta-2 adrenergic receptor (Homo sapiens), sequence (P07550 whole entry, looked up): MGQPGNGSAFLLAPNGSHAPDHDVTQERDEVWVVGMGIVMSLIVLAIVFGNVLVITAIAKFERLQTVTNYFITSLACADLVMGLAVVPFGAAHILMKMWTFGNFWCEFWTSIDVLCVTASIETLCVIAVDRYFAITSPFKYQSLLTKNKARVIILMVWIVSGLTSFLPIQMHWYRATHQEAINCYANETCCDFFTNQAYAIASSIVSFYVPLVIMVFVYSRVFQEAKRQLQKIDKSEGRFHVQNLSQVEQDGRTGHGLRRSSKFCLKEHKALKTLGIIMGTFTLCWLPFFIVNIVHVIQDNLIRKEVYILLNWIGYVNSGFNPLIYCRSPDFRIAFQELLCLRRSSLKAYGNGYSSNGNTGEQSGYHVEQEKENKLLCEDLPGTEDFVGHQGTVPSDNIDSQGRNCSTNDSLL
Bromodomain and WD repeat-containing protein 3 (Homo sapiens), sequence (Q6RI45 whole entry): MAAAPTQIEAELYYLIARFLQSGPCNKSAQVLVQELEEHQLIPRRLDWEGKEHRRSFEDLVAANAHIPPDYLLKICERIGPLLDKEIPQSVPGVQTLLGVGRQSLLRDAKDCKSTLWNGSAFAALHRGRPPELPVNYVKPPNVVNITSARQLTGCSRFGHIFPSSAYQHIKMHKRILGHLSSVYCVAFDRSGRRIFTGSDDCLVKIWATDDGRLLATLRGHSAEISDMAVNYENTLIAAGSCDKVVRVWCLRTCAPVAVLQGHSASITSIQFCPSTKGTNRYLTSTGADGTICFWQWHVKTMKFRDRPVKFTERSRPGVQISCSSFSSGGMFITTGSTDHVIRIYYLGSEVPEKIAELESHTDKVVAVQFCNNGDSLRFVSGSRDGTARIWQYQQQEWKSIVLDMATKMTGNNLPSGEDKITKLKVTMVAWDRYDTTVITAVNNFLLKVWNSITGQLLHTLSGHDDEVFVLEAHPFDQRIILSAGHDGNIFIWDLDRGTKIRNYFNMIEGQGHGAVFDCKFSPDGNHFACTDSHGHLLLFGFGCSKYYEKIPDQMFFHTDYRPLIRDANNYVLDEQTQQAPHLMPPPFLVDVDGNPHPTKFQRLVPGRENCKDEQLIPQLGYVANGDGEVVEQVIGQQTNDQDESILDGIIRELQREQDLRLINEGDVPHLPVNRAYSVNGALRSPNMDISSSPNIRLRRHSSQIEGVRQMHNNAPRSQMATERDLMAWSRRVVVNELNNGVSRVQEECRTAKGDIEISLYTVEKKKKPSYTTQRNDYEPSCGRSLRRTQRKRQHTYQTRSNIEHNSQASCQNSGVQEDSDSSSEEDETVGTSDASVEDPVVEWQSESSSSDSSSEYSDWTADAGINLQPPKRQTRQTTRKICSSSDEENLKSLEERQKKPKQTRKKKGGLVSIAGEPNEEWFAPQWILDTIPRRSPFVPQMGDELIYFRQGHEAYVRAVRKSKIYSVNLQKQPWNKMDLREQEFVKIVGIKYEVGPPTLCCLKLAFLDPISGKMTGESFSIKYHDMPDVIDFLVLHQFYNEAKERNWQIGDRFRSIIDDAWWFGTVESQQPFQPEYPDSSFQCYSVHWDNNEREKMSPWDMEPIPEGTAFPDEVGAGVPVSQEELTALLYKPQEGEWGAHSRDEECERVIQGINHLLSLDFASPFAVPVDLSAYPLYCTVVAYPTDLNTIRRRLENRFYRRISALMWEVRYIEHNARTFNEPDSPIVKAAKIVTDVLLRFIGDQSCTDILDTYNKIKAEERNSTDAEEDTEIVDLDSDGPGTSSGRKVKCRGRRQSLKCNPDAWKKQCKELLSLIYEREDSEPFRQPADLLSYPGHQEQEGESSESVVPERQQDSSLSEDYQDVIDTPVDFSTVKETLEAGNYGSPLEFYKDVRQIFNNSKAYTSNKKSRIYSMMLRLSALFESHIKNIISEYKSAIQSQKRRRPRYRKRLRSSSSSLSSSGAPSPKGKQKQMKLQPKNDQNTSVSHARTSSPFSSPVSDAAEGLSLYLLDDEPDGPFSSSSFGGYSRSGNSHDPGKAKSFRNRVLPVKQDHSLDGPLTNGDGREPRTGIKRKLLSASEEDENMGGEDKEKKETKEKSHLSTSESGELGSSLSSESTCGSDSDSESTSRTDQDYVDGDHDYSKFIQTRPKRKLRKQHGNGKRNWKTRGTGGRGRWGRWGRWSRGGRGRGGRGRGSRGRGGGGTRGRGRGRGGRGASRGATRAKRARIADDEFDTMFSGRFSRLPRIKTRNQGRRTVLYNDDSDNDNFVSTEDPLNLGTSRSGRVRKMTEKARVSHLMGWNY
Protein polybromo-1 (Homo sapiens), sequence (Q86U86 whole entry): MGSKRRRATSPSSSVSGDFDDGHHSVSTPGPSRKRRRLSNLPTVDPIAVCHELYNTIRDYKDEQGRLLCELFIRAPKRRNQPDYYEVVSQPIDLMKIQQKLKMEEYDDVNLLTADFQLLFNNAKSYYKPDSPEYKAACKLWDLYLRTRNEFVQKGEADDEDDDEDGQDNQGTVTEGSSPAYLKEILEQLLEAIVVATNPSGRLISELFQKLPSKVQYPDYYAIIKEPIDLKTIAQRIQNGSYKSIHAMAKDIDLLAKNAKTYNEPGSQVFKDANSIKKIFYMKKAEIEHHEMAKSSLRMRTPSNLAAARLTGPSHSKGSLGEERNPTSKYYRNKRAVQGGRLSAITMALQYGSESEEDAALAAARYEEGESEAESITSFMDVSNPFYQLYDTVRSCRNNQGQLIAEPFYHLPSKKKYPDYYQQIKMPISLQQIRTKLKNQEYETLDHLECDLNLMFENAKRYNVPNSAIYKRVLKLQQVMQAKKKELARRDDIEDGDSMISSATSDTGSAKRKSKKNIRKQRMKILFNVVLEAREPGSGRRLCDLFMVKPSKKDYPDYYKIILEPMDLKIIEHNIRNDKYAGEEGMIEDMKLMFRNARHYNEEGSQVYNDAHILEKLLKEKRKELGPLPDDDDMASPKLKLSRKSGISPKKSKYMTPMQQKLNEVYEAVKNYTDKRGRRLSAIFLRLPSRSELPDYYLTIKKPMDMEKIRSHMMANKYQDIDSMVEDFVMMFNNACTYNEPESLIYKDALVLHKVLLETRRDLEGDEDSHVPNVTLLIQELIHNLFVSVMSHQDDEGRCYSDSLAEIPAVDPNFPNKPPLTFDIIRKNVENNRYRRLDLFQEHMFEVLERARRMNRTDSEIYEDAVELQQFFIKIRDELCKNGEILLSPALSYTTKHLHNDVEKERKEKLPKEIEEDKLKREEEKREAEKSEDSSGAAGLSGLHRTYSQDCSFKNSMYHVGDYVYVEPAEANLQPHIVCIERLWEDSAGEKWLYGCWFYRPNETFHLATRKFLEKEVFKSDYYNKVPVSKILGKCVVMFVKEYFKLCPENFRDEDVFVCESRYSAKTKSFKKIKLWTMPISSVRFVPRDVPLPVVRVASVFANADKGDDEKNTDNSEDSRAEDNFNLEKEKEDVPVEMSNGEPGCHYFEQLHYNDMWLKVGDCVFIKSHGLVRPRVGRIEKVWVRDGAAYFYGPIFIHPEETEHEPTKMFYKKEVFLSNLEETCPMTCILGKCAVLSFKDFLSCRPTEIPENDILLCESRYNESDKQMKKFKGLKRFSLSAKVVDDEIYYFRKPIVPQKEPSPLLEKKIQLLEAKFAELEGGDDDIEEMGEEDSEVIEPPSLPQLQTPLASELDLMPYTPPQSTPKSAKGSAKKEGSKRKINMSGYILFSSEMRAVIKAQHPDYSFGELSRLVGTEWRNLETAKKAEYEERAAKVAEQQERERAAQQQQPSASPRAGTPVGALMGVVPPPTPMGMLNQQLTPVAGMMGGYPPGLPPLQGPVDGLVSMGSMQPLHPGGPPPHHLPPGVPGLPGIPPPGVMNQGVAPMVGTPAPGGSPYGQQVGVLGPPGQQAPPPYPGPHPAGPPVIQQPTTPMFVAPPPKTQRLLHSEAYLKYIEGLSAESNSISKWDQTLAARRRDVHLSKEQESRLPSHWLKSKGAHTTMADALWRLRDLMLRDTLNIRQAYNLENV

What is called ΔTm is the change in melting temperature against a reference sample. As usually defined, the inhibition is the change of the read-out against control, counted positive when it falls. For the compound `COc1cc2c(cc1NS(=O)(=O)c1ccc(Br)cc1C)n(C)c(=O)n2C`, the ΔTm is 1.3 °C in [1]; 0.5 °C in the test listed under Homo sapiens; 1.6 °C in test [2]; 0.2 °C in test [3]; 0.3 °C in test [6]; 0.15 °C in test [7]. Further, in test [8], the ΔTm came out at 0.2 °C. For the same compound, the deltaS in test [4] is -0.004 kcal/mol/K. For the same compound, the inhibition in [5] was found to be 8%. Besides, the deltaH at Peregrin (Homo sapiens) is -12.6 kcal/mol.

Values taken from ChEMBL document CHEMBL5715956, “Selective Targeting of Bromodomains of the Bromodomain-PHD Fingers Family Impairs Osteoclast Differentiation” (ACS Chem Biol, 2017).
